Reference: patent US8765147B2, “Endophytic fungi from Pteromischum sp. plant, compounds and methods of use” (The Regents of the University of California, priority 2007, dated 2014)

Assays:
[1] = system: human peripheral blood mononuclear cells (PBMCs); experiment: Toxicity to peripheral blood mononuclear cells (7-AAD / Annexin V flow cytometry); conditions: 24 and 48 hours of culture, versus DMSO controls; cyclosporin result at or above Bug/ml
Experimental: The cells (PBMCs) were then stained with 7-AAD and Annexin V directly conjugated to FITC or PE and subjected to flow cytometry. The percentage of necrotic (7-AAD+/Annexin V+), apoptotic (7-AAD-/Annexin V+) and viable (7-AAD-/Annexin V−) cells were calculated using CellQuest software (BD Biosciences). […] Error bars represent standard deviations between triplicate treatment groups.
Blood was collected from healthy adult donors and peripheral blood mononuclear cells (PBMCs) were purified using Histopaque 1077 (Sigma Aldrich, St. Louis, Mo.) according to the manufacturer's instructions. […] Cells were washed twice with PBS followed by staining with Annexin V directly conjugated to PE or FITC and 7-AAD using the Annexin V Apoptosis Detection Kit I (BD Biosciences, San Jose, Calif.) as per the manufacturer's instructions. Cells were then subjected to flow cytometry on a FACS Calibur equipped with an HTS loader (BD Biosciences, San Jose, Calif.). The staining allowed for differentiation among viable, necrotic and apoptotic cells. The studies were repeated at least three times and the variation between the dead cells detected was recorded as a function of concentration over 24 and 48 hour test periods.

[2] = system: IL-2 production by activated CD4+ T cells; experiment: Inhibition of IL-2 production by activated CD4+ T cells (flow cytometry); type: cell-based; conditions: mouse spleen cells activated with ConA, anti-CD3/CD28 for 4 hours
Experimental: Total spleen cells were isolated from C57/B 6 mice and then were preactivated with ConA (1 ug/mL, Sigma-Aldrich, St. Louis, Mo.) for 2 days. These cells were then treated for 4 hours with cross-linked Hamster anti-mouse CD3/CD28 (1 ug/mL, BD Bioscience) antibodies in the Bruff's Medium containing 5% fetal bovine serum and 1× brefeldin A. After the activation, cells were fixed and analyzed for IL-2 production in the activated CD4± T cells using APC-conjugated anti-mouse IL-2 and PE-conjugated anti-mouse CD4 antibodies by flow cytometry.

Sclerotinia sclerotiorum = experiment: Minimum inhibitory concentration (MIC), 24-well plate, potato dextrose broth; type: cell-based
Experimental: (§1) All plant pathogenic fungi used in the bioassay test system were obtained from Drs. Don Mathre and Nina Zidak of the MSU Department of Plant Sciences. All fungi were grown on potato dextrose agar (PDA) at 23° C. and only freshly transferred cultures (4-7 days old) were used in the fungal bioassay tests.
(§2) Assays were performed in sterile 24-well plates with each well containing 500 μl of potato dextrose broth. The plates were incubated from 48-288 hours at 25 C. The MIC was defined as the minimum concentration of compound resulting in no visible growth of the test organism. The compounds were dissolved in methanol which represented less than 0.5% total methanol in each test well. Several small plugs of agar 3×3×3 mm containing actively growing test fungi were then placed into each well with some wells serving as controls.

Trichoderma virde = experiment: as above; type: cell-based
Experimental: as §1, §2

Geotrichum canididum = experiment: as above; type: cell-based
Experimental: as §1, §2

Botrytis cinerea = experiment: as above; type: cell-based
Experimental: as §1, §2

Fusarium solani = experiment: as above; type: cell-based
Experimental: as §1, §2

Rhizoctonia solani = experiment: as above; type: cell-based
Experimental: as §1, §2

Aspergillus fumigatus = experiment: as above; type: cell-based
Experimental: as §1, §2

Pythium ultimum = experiment: as above; type: cell-based
Experimental: as §1, §2

## cyclic lipopeptide with a molecular mass of 1127.7 produced by C. dematium fungus CR-12; contains Val-Ile-Ser-Ile [Colutellin A, colutellin A]
[1]
  Cytotoxicity on human PBMCs (necrosis and apoptosis): did not induce significant cell death above the DMSO controls at any concentration tested
[2]
  IC50: 167 nM
Sclerotinia sclerotiorum; after 48 h
  MIC: 3.6 µg/mL
Sclerotinia sclerotiorum; after 144 h
  MIC: 10.8 µg/mL
Sclerotinia sclerotiorum; after 288 h
  MIC: 32.4 µg/mL
Trichoderma virde; after 48 h
  MIC: >100 µg/mL
Trichoderma virde; after 144 h
  MIC: >100 µg/mL
Trichoderma virde; after 288 h
  MIC: >100 µg/mL
Geotrichum canididum; after 48 h
  MIC: 3.6 µg/mL
Geotrichum canididum; after 144 h
  MIC: >100 µg/mL
Geotrichum canididum; after 288 h
  MIC: >100 µg/mL
Botrytis cinerea; after 48 h
  MIC: 3.6 µg/mL
Botrytis cinerea; after 144 h
  MIC: 10.8 µg/mL
Botrytis cinerea; after 288 h
  MIC: 10.8 µg/mL
Fusarium solani; after 48 h
  MIC: 7.2 µg/mL
Fusarium solani; after 144 h
  MIC: >100 µg/mL
Fusarium solani; after 288 h
  MIC: >100 µg/mL
Rhizoctonia solani; after 48 h
  MIC: >100 µg/mL
Rhizoctonia solani; after 144 h
  MIC: >100 µg/mL
Rhizoctonia solani; after 288 h
  MIC: >100 µg/mL
Aspergillus fumigatus; after 48 h
  MIC: 2.4 µg/mL
Aspergillus fumigatus; after 144 h
  MIC: >100 µg/mL
Aspergillus fumigatus; after 288 h
  MIC: >100 µg/mL
Pythium ultimum; after 48 h
  MIC: >100 µg/mL
Pythium ultimum; after 144 h
  MIC: >100 µg/mL
Pythium ultimum; after 288 h
  MIC: >100 µg/mL
